Measured values published in patent publication US9023875B2, “Macrocyclic compounds and methods of treatment” (University of Florida Research Foundation, Inc., priority 2007, dated 2015).
Read-outs that look alike come from different tables or passages of the source. Starred links: 1 amine or outer side, 2 acyl side, 3 side chain; linkers in the order of their positions; H or OH if unused. Positions of bridges follow the written chain, without caps; N, C: chain ends. Non-standard residues stand in square brackets, D forms with d. Residues, ends and D or L forms follow the SMILES beside them. Chains are numbered I, II in the order given. Actinocin(9to1) = Cc1c2oc3c(C)ccc(C(=O)[*:1])c3nc-2c(C(=O)[*:2])c(N)c1=O; NMeV = CN[C@H](C(=O)O)C(C)C; Sar = CNCC(=O)O

Experiments:
[1] = system: NMuMG cells (nontransformed murine mammary epithelial cells); assay: in vitro; format: cell-based; settings: 48 h, read-out: Growth-inhibitory activity (GI50), NMuMG
Method: (§1) Cell culture medium was purchased from Invitrogen and fetal bovine serum (FBS) from Hyclone. Cells were propagated and maintained in DMEM medium (high glucose) supplemented with 10% FBS at 37° C. humidified air and 5% CO2.
(§2) Cells suspended in DMEM containing 10% FBS were plated in 96-well plates (MDA-MB-231: 12,000 cells; NMuMG: 5,000 cells; U20S: 5,000 cells; HT29: 10,000 cells; 1MR-32: 30,000 cells; NIH3T3: 5,000 cells) incubated (37° C., 5% CO2) and 24 h later treated with various concentrations of compound 1 or solvent control (1% EtOH). After another 48 h of incubation, cell viability was measured using MITT according to manufacturer's instructions (Promega).
(§3) MDA-MB-231 and NMuMG cells were also treated with paclitaxel (in DMSO), actinomycin D (in DMSO) and doxorubicin (in H2O) and corresponding solvent control (1%) in the same manner. GI50 and LC50 values were calculated as previously described (K. D. Paull, E. Hamel, L. Malspeis, In Cancer Chemotherapeutic Agents, W. E. Foye, Ed., American Chemical Society, Washington, D.C., 1995, pp. 10-11).
(§4) [formula] [formula] [T=absorbance in treated wells (48 h); T0=absorbance at time zero; C=absorbance in control wells (48 h)]

[2] = system: MDA-MB-231 cells (highly invasive transformed human mammary epithelial cells); assay: cells; format: cell-based
Method: as §1, §2, §3, §4

[3] = system: NIH3T3 cells (nontransformed fibroblasts); assay: cells; format: cell-based; settings: for GI50: read-out: Growth-inhibitory activity (GI50), NIH3T3
Method: as §1, §2, §3, §4

[4] = system: U2OS cells (fibroblastic osteosarcoma); assay: cells; format: cell-based; settings: for GI50: read-out: Growth-inhibitory activity (GI50), U2OS
Method: as §1, §2, §3, §4

HDAC = assay: In vitro cellular HDAC activity assay (fluor de Lys substrate) in HCT-116 cells; format: cell-based; settings: 8 h
Method: HCT-116 cells are seeded in 100 μL of medium per well at a density of 3.5×10^3 cells/well and grown for 24 h in a sterile 96-well solid bottom plate. The assay is carried out according to the manufacturer's instructions (BIOMOL). Briefly, after 24 h the medium iss replaced with 50 μL/well of medium containing 200 μM fluor de Lys™ substrate and 1 μM of trichostatin A (positive control) and test compounds (largazole, acetyl derivative) ranging from 1 μM to 3.2 nM ([…]) and thiol compound ranging from 10 μM to 300 pM. Plates are incubated at 37° C. for 8 h. After the treatment time, 50 μL per well of 1× fluor de Lys™ Developer containing TSA at 2 μM iss added. After developer addition, plates are incubated for 15 min at 37° C. and fluorescence is read (Ex 360 nm, Em 460 nm).

[5] = system: HeLa nuclear extract HDACs (class I HDACs 1, 2, and 3); assay: Cell-free enzymatic assay with HDAC-enriched HeLa nuclear protein extract; format: biochemical; settings: fluor de Lys substrate
Method: Largazole (1) inhibited HDAC activity from a HeLa cell nuclear protein extract rich in class I HDACs 1, 2, and 3 (BIOMOL); however, it is possible that the thioester is cleaved under assay conditions. To investigate that thiol 9 is a reactive species, we liberated 9 from the acetyl analog 8 of largazole (1) and measured enzymatic activity directly; thiol 9 inhibited the HDACs in the nuclear extract of HeLa cells with a similar IC50 value (Table 3).
Assay buffer (25 ul in blank and 10 ul in control), 1 μM triehostatin and test inhibitors (ranging from 10 μM to 300 pM) are added to test sample wells of the microtiter plate. HDAC-enriched nuclear protein extract from HeLa cells (BIOMOL) (5 μg in 15 uL) is added to all wells except in the no-enzyme control. The assay plate is equilibrated at 37° C., and then 25 μl of substrate fluor de Lys™ substrate is added to a final concentration of 116 μM. HDAC reaction is allowed to proceed for 15 min and then stopped by addition of 50 μl per well of 1× fluor de Lys™ Developer containing TSA at 2 μM. After developer addition, plates are incubated for 15 min at 37° C. and fluorescence is read (Ex 360 nm, Em 460 nm).

HCT-116 cells = assay: HCT-116 growth inhibition; format: cell-based; settings: Homo sapiens
[6] = system: IMR-32 cells (neuroblastoma cell line); assay: Cell viability (MTT) assay, IMR-32; format: cell-based; settings: Homo sapiens, 48 h
Method: as §1, §2, §3, §4

in vitro = format: cell-based, murine; settings: mouse, NMuMG cells, MTT, read-out: LC50 (cytotoxicity), NMuMG
Method: as §1, §2, §3, §4

acetylated histone H3 = assay: Immunoblot analysis of acetylated histone H3 in HCT-116 cells; format: cell-based; settings: 8 h
Method: HCT-116 cells (650,000 cells/dish) are seeded in 10-cm dishes and 24 h later treated with various concentrations of largazole, trichostatin or solvent controls (EtOH for largazole and DMSO for trichostatin). Following incubation for 8 h, whole-cell lysates are prepared using PhosphoSafe lysis buffer (Novagen), proteins extracted, and protein concentration measured using the BCA method (Pierce). Cell lysates containing equal amounts of protein are separated by SDS-PAGE, transferred to PVDF membranes, probed with antibodies and detected with the Supersignal Femto Western blotting kit (Pierce). Anti-acetyl-histone H3 (Lys9/18) and anti-histone H3 primary antibodies are obtained from Millipore and horseradish peroxidase conjugated anti-rabbit secondary antibody is purchased from Cell Signaling.

[7] = system: HT29 cells (colon cancer cell line); assay: Cell viability (MTT) assay, HT29; format: cell-based; settings: Homo sapiens, HT-29, 48 h
Method: as §1, §2, §3, §4

[8] = Mus musculus, Epithelial cell, NMuMG cells, MTT
[9] = Homo sapiens, MDA-MB-231, 48 h, MDA-MB-231 cells, 48 h, MTT, read-out: Growth-inhibitory activity (GI50), MDA-MB-231
[10] = Mus musculus, NIH3T3 cells, 48 h, MTT
[11] = Homo sapiens, U2OS cells, 48 h, MTT

Cc1c2oc3c(C)ccc(C(=O)N[C@@H]4C(=O)N[C@H](C(C)C)C(=O)N5CCC[C@H]5C(=O)N(C)CC(=O)N(C)[C@@H](C(C)C)C(=O)O[C@@H]4C)c3nc-2c(C(=O)N[C@@H]2C(=O)N[C@H](C(C)C)C(=O)N3CCC[C@H]3C(=O)N(C)CC(=O)N(C)[C@@H](C(C)C)C(=O)O[C@@H]2C)c(N)c1=O [Actinomycin D, reference compound] (I: T[dV]P[Sar][NMeV] / II: T[dV]P[Sar][NMeV]; ester I:1-I:C, II:1-II:C; linker I:N-II:N via Actinocin(9to1))
GI50 ([1]; NMuMG cells, MTT): 0.0003 µM | GI50 ([2]; MDA-MB-231 cells, 48 h, MTT, read-out: Growth-inhibitory activity (GI50), MDA-MB-231): 0.0005 µM | GI50 ([3]; NIH3T3 cells, 48 h, MTT): 0.0004 µM | GI50 ([4]; U2OS cells, 48 h, MTT): 0.0008 µM

CC(=O)SCCC=CC1CC(=O)NCc2nc(cs2)C2=NC(C)(CS2)C(=O)NC(C(C)C)C(=O)O1 (centres unmarked) [Compound 8]
IC50 (HDAC): 0.05 ± 0.018 µM | IC50 [5]: 0.052 ± 0.027 µM | GI50 (HCT-116 cells): 0.033 ± 0.002 µM

CC(C)C1NC(=O)C2(C)CSC(=N2)c2csc(n2)CNC(=O)CC(C=CCCS)OC1=O (centres unmarked) [Compound 9]
IC50 (HDAC): 0.209 ± 0.015 µM | IC50 [5]: 0.042 ± 0.029 µM | GI50 (HCT-116 cells): 0.038 ± 0.005 µM

COc1cccc2c1C(=O)c1c(O)c3c(c(O)c1C2=O)C[C@@](O)(C(=O)CO)C[C@@H]3O[C@H]1C[C@H](N)[C@H](O)[C@H](C)O1 [Doxorubicin, reference compound]
GI50 [1, 8]: 0.063 µM | GI50 [2, 9]: 0.31 µM | GI50 [3, 10]: 0.047 µM | GI50 [4, 11]: 0.22 µM

CCCCCCCC(=O)SCC/C=C/[C@@H]1CC(=O)NCc2nc(cs2)C2=N[C@@](C)(CS2)C(=O)N[C@@H](C(C)C)C(=O)O1 [Largazole (1), largazole]
IC50 (HDAC): 0.051 ± 0.003 µM | GI50 [6]: 0.016 µM | IC50 [5]: 0.037 ± 0.011 µM | GI50 (HCT-116 cells): 0.044 ± 0.01 µM | GI50 ([1]; Mus musculus, Epithelial cell): 0.122 µM | GI50 ([2]; Homo sapiens, MDA-MB-231, 48 h, read-out: Growth-inhibitory activity (GI50), MDA-MB-231, MDA-MB-231 cells, 48 h, MTT): 0.008 µM | Differential growth-inhibitory activity between transformed and nontransformed epithelial cells ([2]; MDA-MB-231 vs NMuMG (GI50)): 15 fold | GI50 ([2]; read-out: Growth-inhibitory activity (GI50), MDA-MB-231, MDA-MB-231 cells, 48 h, MTT): 0.0077 µM | GI50 ([3]; Mus musculus, NIH3T3, 48 h): 0.48 µM | Toxicity (cytotoxicity) in NIH3T3 ([3]; NIH3T3 cells, 48 h, MTT): no apparent toxicity | GI50 ([4]; Homo sapiens, U2OS, 48 h): 0.055 µM | CC50 ([4]; Homo sapiens, U2OS, 48 h, read-out: LC50 (cytotoxicity), U2OS): 0.094 µM | Differential growth-inhibitory activity between transformed and nontransformed fibroblasts ([4]; U2OS vs NIH3T3 (GI50)): 8 fold | CC50 at 48 h (in vitro): 0.272 µM | Immunoblot of endogenous HDAC substrate acetylated histone H3 (acetylated histone H3): same dose-response relationship | GI50 [7]: 0.012 µM | CC50 ([7]; read-out: LC50 (cytotoxicity), HT29): 0.022 µM

CC(=O)O[C@H]1C(=O)[C@@]2(C)[C@H]([C@H](OC(=O)c3ccccc3)[C@]3(O)C[C@H](OC(=O)[C@H](O)[C@@H](NC(=O)c4ccccc4)c4ccccc4)C(C)=C1C3(C)C)[C@]1(OC(C)=O)CO[C@@H]1C[C@@H]2O [Paclitaxel, reference compound]
GI50 [1, 8]: 0.0059 µM | GI50 [2, 9]: 0.007 µM | GI50 [3, 10]: 0.0064 µM | GI50 [4, 11]: 0.012 µM
